The results in this text go back to patent US10364242B2, “Modulation of N-acylethanolamine-hydrolysing acid amidase (NAAA) for disease treatment” (FONDAZIONE ISTITUTO ITALIANO DI TECNOLOGIA, priority 2017, dated 2019).

For assay [1], the target named is T1, h-NAAA (Homo sapiens (Human), UniProt Q02083). In words: Inhibitors recovery assay (LC/MS). Format: biochemical. The conditions noted are these: LC/MS recovery study, 1 μM compound, 2 h at 37° C. with h-NAAA. As to the method: FIG. 2 is a histogram resulting from the inhibitors recovering assay: ordinate: % recovery of compounds after h-NAAA incubation; ARN16186 and covalent inhibitor ARN15393 were incubated with NAAA (right bars) or buffer alone (left bars) and quantified in supernatant after protein precipitation;
(§1) h-NAAA was produced and purified from h-NAAA overexpressing HEK293 cell line as described (ACS Med Chem Lett 2012, 3, 422-426). The purified enzyme was incubated in activation buffer [100 mM Sodium Phosphate/Sodium Citrate Buffer, 3 mM DL-dithiothreitol (DTT), 0.1% Triton X100, pH 4.5] for 3 h at 37° C. and the enzyme activation was checked by SDS-PAGE and Coomassie blue staining.
h-NAAA (25 μL of a 2 μM solution) was incubated with ARN16186 or covalent inhibitor ARN15393 at the concentration of 1 μM in activation buffer, 2 h at 37° C. Samples were next precipitated with ten volumes of acetonitrile and centrifuged 10 min at 12000×g. The supernatants were recovered and analysed by LCMS/MS for the presence of the added compound. No-protein control samples (buffer only) were used as 100% recovery reference. Compound was detected and quantified using a Waters ACQUITY UPLC/MS TQD system consisting of a TQD (Triple Quadrupole Detector) mass spectrometer, equipped with an electrospray ionization interface. […] Compound was quantified monitoring its MRM peak area. […]
Target sequence in this assay (Q02083 29-125): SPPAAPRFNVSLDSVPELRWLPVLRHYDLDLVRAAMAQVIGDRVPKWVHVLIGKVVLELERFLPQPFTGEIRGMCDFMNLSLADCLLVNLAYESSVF
Target sequence in this assay (Q02083 126-359): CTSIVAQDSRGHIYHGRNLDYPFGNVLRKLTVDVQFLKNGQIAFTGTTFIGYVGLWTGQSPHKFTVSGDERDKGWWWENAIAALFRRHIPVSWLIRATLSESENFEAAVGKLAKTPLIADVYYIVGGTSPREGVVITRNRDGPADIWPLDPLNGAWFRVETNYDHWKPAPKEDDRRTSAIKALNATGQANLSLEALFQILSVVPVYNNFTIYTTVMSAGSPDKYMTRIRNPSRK

Assay [2] concerns the target h-FAAH1 (Fatty Acid Amide Hydrolase) (Homo sapiens (Human), UniProt O00519). In words: Fluorogenic h-FAAH assay. Format: biochemical. The conditions noted are these: AMC arachidonoyl amide 800 nM, pH 7.4, 50 min pre-incubation. As to the method: (§2) Human recombinant proteins were obtained from HEK-293 stable overexpressing NAAA, AC and FAAH cell lines, respectively. Cells were grown in Dulbecco's modified Eagle medium (DMEM) containing 10% FBS, 1% penicillin/streptomycin, 1% glutamine and 500 μg/mL G418. To obtain membrane preparation cells were scraped off with cold phosphate-buffered saline (PBS) and collected by centrifugation (300×g, 7 min, 4° C.). Cell pellets were stored at −80° C. until protein preparation.
Preparation of membrane-enriched lysate (h-FAAH). […]
The fluorescent assay to measure FAAH activity was performed in 96 wells black plates: 2.5 μg of human FAAH-1 membrane preparation were pre-incubated for 50 min at 37° C., in 190 μL of assay buffer (50 mM TrisHCl pH 7.4, 0.05% Fatty acid-free BSA) with 5 μL of inhibitor or 5 μL DMSO to measure FAAH total activity. […] The reaction was carried out for 45 minutes at 37° C. and fluorescence was measured with EnVision 2014 Multilabel Reader (PerkinElmer, Massachusetts, USA) (excitation wavelength 355 nm/emission wavelength 460 nm). The concentration causing half-maximal inhibition (IC50) was determined by nonlinear regression analysis of the Log [concentration]/response curves generated with mean replicate values using a four-parameter Hill equation curve fitting with GraphPad Prism 5 (GraphPad Software Inc., CA, USA).

Assay [3] addresses T1, h-NAAA. Kind of assay: Dialysis test (reversibility of inhibition). Format: biochemical.
Target sequence in this assay (Q02083 29-359): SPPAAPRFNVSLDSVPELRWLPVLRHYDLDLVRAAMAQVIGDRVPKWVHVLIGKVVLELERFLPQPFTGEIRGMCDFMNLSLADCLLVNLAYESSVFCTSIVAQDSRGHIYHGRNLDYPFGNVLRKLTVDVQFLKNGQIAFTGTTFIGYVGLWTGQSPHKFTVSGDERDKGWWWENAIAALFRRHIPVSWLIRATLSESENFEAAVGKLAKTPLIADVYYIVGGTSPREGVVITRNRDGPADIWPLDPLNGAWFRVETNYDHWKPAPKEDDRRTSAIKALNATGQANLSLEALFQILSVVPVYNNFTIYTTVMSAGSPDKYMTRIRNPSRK
The test system of assay [4] is sciatic nerve chronic constriction injury (CCI) model of persistent hyperalgesia and allodynia. Kind of assay: Chronic Constriction Injury (CCI) of the sciatic nerve. Format: in vivo. The conditions noted are these: mice. Here is the method:
Sciatic nerve ligations were performed according to Bennett and Xie (Pain. 1988, 33, 87-107). Adult male CD1 mice were anesthetized with 2-3% isoflurane, and the left sciatic nerve was exposed at mid-thigh level through a small incision and tied at two distinct sites (spaced at a 2-mm interval) with a silk thread. The wound was closed with a single muscle suture and skin clips, and dusted with streptomycin. In sham-operated animals, the nerve was exposed but not tied. All experiments were performed in a quiet room, and experimenters were blinded to the treatment protocol at the time of the test.
Heat hyperalgesia was assessed by the method of Hargreaves et al. (Pain. 1988, 32, 77-88) measuring the latency to withdraw the hind paw from a focused beam of radiant heat (thermal intensity: infrared 3.0) applied to the plantar surface in a plantar test apparatus (Ugo Basile). The cutoff time was set at 30 s.
Tactile allodynia (dynamic plantar esthesiometer; Ugo Basile) was assessed as described by La Rana et al. (Neuropharmacology 2008, 54,521-529) using the Von Frey dynamic plantar aesthesiometer (DPA). Animals were placed individually in a small testing arena (20 cm×18.5 cm×13 cm) with a wire mesh floor for 5 min. The DPA device was positioned beneath the animal, so that the filament was directly under the plantar surface of the paw to be tested. […] The DPA automatically records the force at which the paw is withdrawn and the withdrawal latency (latency and maximum force are directly related, because the device progressively increases force until withdrawal occurs). Mechanical hyperalgesia was recorded according to the Randall Sellito measurement.
ARN16186 was then studied for its ability to alleviate established chronic pain condition (therapeutic effect). The compound was tested in the sciatic nerve chronic constriction injury (CCI) model of persistent hyperalgesia and allodynia in mice, a model that has both inflammatory and neuropathic pain components. ARN16186 (0.3, 1.0, 3.0 and 10 mg kg^−1, p.o.) was administered on day 7 and day 14, after left sciatic nerve ligation, and pain readouts were measured 2 h after dosing.

The target in assay [5] is h-AC (Acid Ceramidase) (Homo sapiens (Human), UniProt Q13510). Kind of assay: Fluorogenic h-AC assay. Format: biochemical. The note with it: pH 4.5, 10 min pre-incubation. Here is the method:
as §2
(§3) Preparation of enzyme-enriched lysate (h-NAAA and hAC). HEK-293 cells stably transfected with the human NAAA or human AC coding sequences were used as enzyme source. […] The suspension was finally ultracentrifuged at 105,000×g for 1 h at 4° C., supernatants were collected, protein concentration was measured and samples aliquoted and stored at −80° C. until use.
The assay was run in 96-well microplates (Black OptiPlate™-96 F; PerkinElmer, Massachusetts, USA) in a total reaction volume of 100 μL. h-AC protein preparation (2.0 μg) was pre-incubated for 10 min with various concentrations of test compounds or vehicle control (DMSO 5%) in 25 mM sodium acetate buffer (pH 4.5). […] Fluorescence was measured with EnVision 2014 Multilabel Reader (PerkinElmer, Massachusetts, USA) using an excitation wavelength of 355 nm and emission 460 nm. […]

Assay [6] addresses T1, h-NAAA. Kind of assay: Competitive Activity Based Protein Profiling (ABPP). The note with it: 20 μM, lysosomal extracts of h-NAAA overexpressing HEK293 cells, probe ARN14686. Format: biochemical. Here is the method:
FIG. 1 is a picture showing the SDS-PAGE analysis resulting from the Competitive Activity Based Protein Profiling (ABPP): in summary, lysosomal extracts of h-NAAA overexpressing HEK293 cells were incubated with a vehicle (2% DMSO), ARN15393 (covalent h-NAAA inhibitor) or ARN16186, for 2 h before addition of probe ARN14686; a rhodamine fluorophore was inserted by a click chemistry. The arrow indicates NAAA;
as §1
For competitive ABPP, 50 μL of lysosomal enrichment (0.5 mg/mL) from of h-NAAA-overexpressing HEK293 cell line were incubated 2 h at 37° C. with ARN16186 or covalent inhibitor ARN15393^(*^) at a final concentration of 20 μM (DMSO 2%). At the end of this pre-incubation time, the activity based probe undec-10-ynyl-N—[(S)-2-oxoazetidin-3-yl]carbamate (ARN14686) (ACS Chem. Biol. 2015, 10, 2057-2064) was added at 20 μM for 15 min or for 3.5 h at 37° C. […] Samples (10 μL) were analysed by SDS-PAGE and gel florescence was scanned at 532 nm wavelength (Fuji Film FLA-9000 instrument).
Target sequence in this assay (Q02083 29-359): as above

Assay [7] addresses T1, h-NAAA. In words: Fluorogenic h-NAAA assay. Format: biochemical. The note with it: PAMCA substrate 2.0 μM, pH 4.5, 30 min pre-incubation. As to the method: as §2, §3
Target sequence in this assay (Q02083 29-359): as above
The assay was run in 96-well microplates (Black OptiPlate™-96 F; PerkinElmer, Massachusetts, USA), in a total reaction volume of 200 μL. h-NAAA protein preparation (4.0 μg) was pre-incubated for 30 min with various concentrations of test compounds or vehicle control (DMSO 5%) in 100 mM citrate/phosphate buffer (pH 4.5) containing 3.0 mM DTT, 0.1% NP40 0.1%, 0.05% BSA, 150 mM NaCl. […] Fluorescence was measured with EnVision 2014 Multilabel Reader (PerkinElmer, Massachusetts, USA) using an excitation wavelength of 355 nm and emission 460 nm. […]

[8] abbreviates: single administration 0.3, 1.0, 3.0 and 10 mg kg^−1 p.o., day 7 and day 14 after ligation, 2 h after dosing, dose-dependent.

Sequence of h-FAAH1 (Fatty Acid Amide Hydrolase) (O00519 whole entry): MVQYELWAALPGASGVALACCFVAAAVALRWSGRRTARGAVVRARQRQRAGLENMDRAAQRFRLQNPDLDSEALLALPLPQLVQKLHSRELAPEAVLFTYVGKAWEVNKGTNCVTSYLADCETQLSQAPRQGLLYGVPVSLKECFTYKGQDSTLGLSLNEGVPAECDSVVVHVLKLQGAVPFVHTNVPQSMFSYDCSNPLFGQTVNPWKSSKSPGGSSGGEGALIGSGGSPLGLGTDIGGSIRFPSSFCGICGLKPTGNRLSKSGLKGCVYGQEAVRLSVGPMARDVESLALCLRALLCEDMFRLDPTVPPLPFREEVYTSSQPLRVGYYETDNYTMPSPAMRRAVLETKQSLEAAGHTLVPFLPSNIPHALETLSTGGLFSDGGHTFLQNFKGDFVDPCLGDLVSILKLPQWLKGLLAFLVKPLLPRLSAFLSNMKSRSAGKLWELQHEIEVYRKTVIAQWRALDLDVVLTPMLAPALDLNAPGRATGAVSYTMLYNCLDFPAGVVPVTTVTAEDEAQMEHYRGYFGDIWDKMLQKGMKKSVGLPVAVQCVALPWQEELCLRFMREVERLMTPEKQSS
Sequence of h-AC (Acid Ceramidase) (Q13510 22-395): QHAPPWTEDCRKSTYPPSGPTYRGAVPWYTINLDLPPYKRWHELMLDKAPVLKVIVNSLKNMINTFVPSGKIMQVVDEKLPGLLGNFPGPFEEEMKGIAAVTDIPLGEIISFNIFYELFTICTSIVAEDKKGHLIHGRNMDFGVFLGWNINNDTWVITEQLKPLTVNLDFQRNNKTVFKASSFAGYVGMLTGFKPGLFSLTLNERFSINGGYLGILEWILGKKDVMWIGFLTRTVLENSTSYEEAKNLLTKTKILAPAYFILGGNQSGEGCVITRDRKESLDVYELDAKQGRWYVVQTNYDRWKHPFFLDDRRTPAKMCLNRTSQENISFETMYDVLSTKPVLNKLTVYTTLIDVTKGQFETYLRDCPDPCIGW

On to `CCCCc1ccc(OC2CC3CCC(C2)N3S(=O)(=O)c2c(C)n[nH]c2C)cc1` (stereo not drawn) [ARN16186, (endo)-3-(4-butylphenoxy)-8-[(3,5-dimethyl-1H-pyrazol-4-yl)sulfonyl]-8-azabicyclo[3.2.1.]octane], for which the mechanism of inhibition result in assay [1] and in assay [6] was “non-covalent” throughout. Also, the IC50 is over 30 µM in assay [2], over 30 µM in assay [5] and 0.023 ± 0.004 µM in assay [7]. Besides, in assay [3] (after 24 h), the “recovery in a dialysis test” value is listed as “ca. 30%”. For the same molecule, the “mode of inhibition (dialysis test)” value in assay [3] (after 24 h dialysis) was “partially reversible”. The “dose with full effect on hyperalgesia and allodynia” value in assay [4] (p.o., single administration, readout 2 h after dosing) worked out at 10 mg/kg. Besides, the mechanical hyperalgesia result in assay [4] (setting [8]) is recorded as “reduce significantly”. The tactile allodynia entry in assay [4] (setting [8]) is given as “reduce significantly”. In assay [4] (setting [8]), the thermal hyperalgesia entry was “reduce significantly”.

In general, IC50 refers to the concentration that inhibits the measured activity by half. A higher IC50 goes with lower potency.
